According to ChEMBL document CHEMBL3991601, “The target landscape of clinical kinase drugs” (Science, 2017):
Where a name gives a salt, the structure may show the parent alone. Activity calls are given as the source filed them. Cut-off read from the data, not from the text of the source, for most assays here: actives have a measured Kd and inactives only a lower limit.

Experiments:
Activin receptor type-1B = biological target: T1, Activin receptor type-1B (Homo sapiens, UniProt P36896)
T1 sequence (P36896 whole entry): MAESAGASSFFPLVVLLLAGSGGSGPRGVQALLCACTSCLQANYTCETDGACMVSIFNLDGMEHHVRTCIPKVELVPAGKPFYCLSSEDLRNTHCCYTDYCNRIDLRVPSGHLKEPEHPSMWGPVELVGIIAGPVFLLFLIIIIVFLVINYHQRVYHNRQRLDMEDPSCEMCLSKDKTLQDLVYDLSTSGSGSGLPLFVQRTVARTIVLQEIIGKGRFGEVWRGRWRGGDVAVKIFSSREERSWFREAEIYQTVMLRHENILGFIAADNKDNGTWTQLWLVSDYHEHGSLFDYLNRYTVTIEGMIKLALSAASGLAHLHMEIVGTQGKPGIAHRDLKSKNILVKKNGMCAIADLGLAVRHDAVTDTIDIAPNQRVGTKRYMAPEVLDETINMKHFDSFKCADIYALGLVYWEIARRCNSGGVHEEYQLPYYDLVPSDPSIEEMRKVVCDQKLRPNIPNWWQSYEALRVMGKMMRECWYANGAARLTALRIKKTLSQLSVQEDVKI

Ephrin type-B receptor 3 = biological target: T2, Ephrin type-B receptor 3 (Homo sapiens, UniProt P54753)
T2 sequence (P54753 whole entry): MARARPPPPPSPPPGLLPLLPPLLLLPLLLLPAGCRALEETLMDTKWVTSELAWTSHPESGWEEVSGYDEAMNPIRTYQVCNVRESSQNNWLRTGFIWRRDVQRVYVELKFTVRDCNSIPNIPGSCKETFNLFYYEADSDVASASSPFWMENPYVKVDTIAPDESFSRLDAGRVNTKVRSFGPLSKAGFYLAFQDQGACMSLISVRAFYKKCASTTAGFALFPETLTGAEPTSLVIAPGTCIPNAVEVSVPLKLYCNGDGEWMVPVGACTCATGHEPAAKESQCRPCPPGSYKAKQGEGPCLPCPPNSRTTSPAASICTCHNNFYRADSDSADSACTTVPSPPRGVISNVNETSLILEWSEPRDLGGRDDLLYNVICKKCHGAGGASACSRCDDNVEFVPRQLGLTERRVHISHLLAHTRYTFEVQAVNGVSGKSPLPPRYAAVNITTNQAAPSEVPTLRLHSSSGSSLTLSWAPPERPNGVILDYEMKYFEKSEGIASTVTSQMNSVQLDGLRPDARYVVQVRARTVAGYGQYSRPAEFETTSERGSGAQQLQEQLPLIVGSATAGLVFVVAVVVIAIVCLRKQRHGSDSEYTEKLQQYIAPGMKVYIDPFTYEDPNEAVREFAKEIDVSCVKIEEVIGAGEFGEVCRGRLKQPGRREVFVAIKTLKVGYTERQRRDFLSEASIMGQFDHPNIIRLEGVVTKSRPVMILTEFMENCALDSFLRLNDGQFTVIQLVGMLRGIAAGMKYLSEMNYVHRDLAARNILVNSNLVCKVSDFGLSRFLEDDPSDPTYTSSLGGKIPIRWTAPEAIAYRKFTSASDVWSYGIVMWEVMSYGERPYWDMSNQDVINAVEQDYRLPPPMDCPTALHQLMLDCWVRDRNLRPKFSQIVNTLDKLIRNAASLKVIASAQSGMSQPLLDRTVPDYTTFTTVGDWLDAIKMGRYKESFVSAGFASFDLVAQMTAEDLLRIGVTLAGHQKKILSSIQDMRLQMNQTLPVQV

[1] = biological target: T3, Ferrochelatase, mitochondrial (Homo sapiens, UniProt P22830)
T3 sequence (P22830 whole entry): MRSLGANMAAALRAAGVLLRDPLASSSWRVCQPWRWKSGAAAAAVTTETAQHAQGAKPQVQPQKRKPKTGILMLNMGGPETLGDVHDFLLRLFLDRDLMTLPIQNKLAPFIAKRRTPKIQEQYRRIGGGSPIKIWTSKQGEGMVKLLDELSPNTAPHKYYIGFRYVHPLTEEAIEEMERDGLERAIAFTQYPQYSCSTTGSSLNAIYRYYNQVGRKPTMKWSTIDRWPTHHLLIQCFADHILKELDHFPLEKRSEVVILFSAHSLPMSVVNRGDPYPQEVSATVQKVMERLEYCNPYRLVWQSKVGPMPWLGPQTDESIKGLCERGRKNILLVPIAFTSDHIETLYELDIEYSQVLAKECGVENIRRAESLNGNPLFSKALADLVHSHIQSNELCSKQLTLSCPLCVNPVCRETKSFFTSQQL

[2] = biological target: T4, Mitogen-activated protein kinase kinase kinase kinase 3 (Homo sapiens, UniProt Q8IVH8)
T4 sequence (Q8IVH8 whole entry): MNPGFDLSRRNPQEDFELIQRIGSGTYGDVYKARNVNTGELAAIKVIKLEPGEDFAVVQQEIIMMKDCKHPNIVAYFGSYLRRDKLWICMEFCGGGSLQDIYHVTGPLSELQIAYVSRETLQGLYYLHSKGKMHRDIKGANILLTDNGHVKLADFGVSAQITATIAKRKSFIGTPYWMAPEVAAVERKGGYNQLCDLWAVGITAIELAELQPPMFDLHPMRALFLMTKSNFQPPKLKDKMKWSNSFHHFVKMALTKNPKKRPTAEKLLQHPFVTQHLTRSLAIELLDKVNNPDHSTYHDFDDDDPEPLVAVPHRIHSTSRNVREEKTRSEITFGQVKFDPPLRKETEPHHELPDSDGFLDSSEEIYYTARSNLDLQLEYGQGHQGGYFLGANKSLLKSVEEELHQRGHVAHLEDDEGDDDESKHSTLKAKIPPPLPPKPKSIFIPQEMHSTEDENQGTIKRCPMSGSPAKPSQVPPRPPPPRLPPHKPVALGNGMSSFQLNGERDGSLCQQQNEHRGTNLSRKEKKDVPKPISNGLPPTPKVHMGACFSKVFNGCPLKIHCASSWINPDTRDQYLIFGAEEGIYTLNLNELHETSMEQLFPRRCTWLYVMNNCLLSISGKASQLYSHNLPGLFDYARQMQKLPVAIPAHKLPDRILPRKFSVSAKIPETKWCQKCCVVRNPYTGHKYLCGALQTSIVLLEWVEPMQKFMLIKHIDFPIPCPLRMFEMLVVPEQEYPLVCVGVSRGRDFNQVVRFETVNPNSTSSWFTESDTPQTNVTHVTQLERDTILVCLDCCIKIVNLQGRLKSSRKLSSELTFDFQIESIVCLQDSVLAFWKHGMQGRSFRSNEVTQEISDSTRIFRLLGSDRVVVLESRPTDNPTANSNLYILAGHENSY

[3] = biological target: Dual specificity testis-specific protein kinase 1 (Homo sapiens, UniProt Q15569)
Sequence of Dual specificity testis-specific protein kinase 1 (Q15569 whole entry): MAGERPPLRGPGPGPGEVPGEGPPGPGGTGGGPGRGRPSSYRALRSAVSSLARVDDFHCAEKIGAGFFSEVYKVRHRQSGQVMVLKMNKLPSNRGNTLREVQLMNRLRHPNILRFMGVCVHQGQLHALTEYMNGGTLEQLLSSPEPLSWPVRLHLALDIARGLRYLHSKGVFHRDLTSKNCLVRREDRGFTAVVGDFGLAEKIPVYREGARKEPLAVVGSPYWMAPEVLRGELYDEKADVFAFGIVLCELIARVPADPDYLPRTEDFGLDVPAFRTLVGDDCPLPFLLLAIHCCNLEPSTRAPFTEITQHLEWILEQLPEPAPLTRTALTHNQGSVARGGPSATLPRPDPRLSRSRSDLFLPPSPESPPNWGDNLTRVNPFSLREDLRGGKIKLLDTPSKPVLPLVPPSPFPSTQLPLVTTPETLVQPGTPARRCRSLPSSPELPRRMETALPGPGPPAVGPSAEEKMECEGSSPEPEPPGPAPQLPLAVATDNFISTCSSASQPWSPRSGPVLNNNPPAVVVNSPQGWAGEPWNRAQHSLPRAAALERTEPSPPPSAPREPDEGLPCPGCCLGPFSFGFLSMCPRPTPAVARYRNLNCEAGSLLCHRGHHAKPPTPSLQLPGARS
Note: in the data inactive means no Kd found up to 30 µM.

SMILES | Kd (Activin receptor type-1B) | Kd (Ephrin type-B receptor 3) | Kd [1] | Kd [2] | Kd [3]
Cn1cnc2c(F)c(Nc3ccc(Br)cc3F)c(C(=O)NOCCO)cc21 [BINIMETINIB] | > 30 µM (inactive) | > 30 µM (inactive) | > 30 µM (inactive) | > 30 µM (inactive) | > 30 µM (inactive)
CCn1c(C(=O)N(C2CC2)C2CC2)cc2c3c(ncn3C)c(Nc3cc(C)n(C)n3)nc21 [BMS-911543] | > 30 µM (inactive) | > 30 µM (inactive) | > 30 µM (inactive) | > 30 µM (inactive) | > 30 µM (inactive)
COc1cc2ncnc(Oc3cccc(NC(=O)Nc4cc(C(C)(C)C(F)(F)F)on4)c3)c2cc1OC [CEP-32496] | > 30 µM (inactive) | > 30 µM (inactive) | > 30 µM (inactive) | > 30 µM (inactive) | > 30 µM (inactive)
Cc1cc(Nc2ncc(Cl)c(Nc3ccccc3S(=O)(=O)C(C)C)n2)c(OC(C)C)cc1C1CCNCC1 [CERITINIB] | > 30 µM (inactive) | > 30 µM (inactive) | > 30 µM (inactive) | > 30 µM (inactive) | > 30 µM (inactive)
COc1c(OCCCN2CCOCC2)ccc2c1N=C(NC(=O)c1cnc(N)nc1)N1CCN=C21 [COPANLISIB] | > 30 µM (inactive) | > 30 µM (inactive) | > 30 µM (inactive) | > 30 µM (inactive) | > 30 µM (inactive)
COCC(=O)NC/C=C/c1ccc2ncnc(Nc3ccc(Oc4ccc(C)nc4)c(C)c3)c2c1 [CP-724714] | > 30 µM (inactive) | > 30 µM (inactive) | 28.6 µM (active) | > 30 µM (inactive) | > 30 µM (inactive)
C#Cc1cccc(Nc2ncnc3cc(OC)c(OCCCCCCC(=O)NO)cc23)c1 [CUDC-101] | > 30 µM (inactive) | > 30 µM (inactive) | 2.87 µM (active) | > 30 µM (inactive) | > 30 µM (inactive)
CCS(=O)(=O)N1CCN(c2ccc(Nc3ncc(C(N)=O)c(NC4CC4)n3)cc2)CC1 [Cerdulatinib Hydrochloride] | > 30 µM (inactive) | > 30 µM (inactive) | > 30 µM (inactive) | 0.033 µM (active) | > 30 µM (inactive)
CC(C)(C)c1nc(-c2cccc(NS(=O)(=O)c3c(F)cccc3F)c2F)c(-c2ccnc(N)n2)s1 [DABRAFENIB] | 0.601 µM (active) | > 30 µM (inactive) | > 30 µM (inactive) | > 30 µM (inactive) | > 30 µM (inactive)
Cc1nc2cc(-n3ncc(C(=O)c4cc5ccccc5[nH]4)c3N)ccc2[nH]1 [FGFR INHIBITOR DEBIO 1347] | > 30 µM (inactive) | > 30 µM (inactive) | > 30 µM (inactive) | > 30 µM (inactive) | > 30 µM (inactive)
O=C(Nc1nc2cccc(-c3ccc(CN4CCS(=O)(=O)CC4)cc3)n2n1)C1CC1 [FILGOTINIB] | > 30 µM (inactive) | > 30 µM (inactive) | > 30 µM (inactive) | > 30 µM (inactive) | > 30 µM (inactive)
Cc1cccc(-c2nn3c(c2-c2ccnc4ccc(C(N)=O)cc24)CCC3)n1 [GALUNISERTIB] | 0.016 µM (active) | > 30 µM (inactive) | > 30 µM (inactive) | > 30 µM (inactive) | > 30 µM (inactive)
COc1ccc(S(=O)(=O)N(C(C)=O)c2ccccc2/C=C/c2cc[n+]([O-])cc2)cc1 [HMN-214] | > 30 µM (inactive) | > 30 µM (inactive) | > 30 µM (inactive) | > 30 µM (inactive) | > 30 µM (inactive)
O=C(Nc1cc(C(F)(F)F)cc(C(F)(F)F)c1)c1cc(Cl)ccc1O [IMD-0354] | > 30 µM (inactive) | > 30 µM (inactive) | > 30 µM (inactive) | > 30 µM (inactive) | > 30 µM (inactive)
CNC(=O)c1cccc2cc(Oc3ccnc4cc(OCC5(N)CC5)c(OC)cc34)ccc12 [LUCITANIB] | > 30 µM (inactive) | > 30 µM (inactive) | > 30 µM (inactive) | > 30 µM (inactive) | > 30 µM (inactive)
NC1(c2ccc(-c3nc4ccn5c(=O)[nH]nc5c4cc3-c3ccccc3)cc2)CCC1 [MK-2206] | > 30 µM (inactive) | > 30 µM (inactive) | 1.07 µM (active) | > 30 µM (inactive) | > 30 µM (inactive)
CN(C[C@@H]1COCCO1)S(=O)(=O)Nc1ccc2ccc3ncc(-c4cnn(C)c4)cc3c(=O)c2c1 [MK-2461] | > 30 µM (inactive) | > 30 µM (inactive) | 3.42 µM (active) | > 30 µM (inactive) | > 30 µM (inactive)
Cn1cc(-c2cnc3ccc4ccc(CS(=O)(=O)NCc5ccccn5)cc4c(=O)c3c2)cn1 [MK-8033] | > 30 µM (inactive) | > 30 µM (inactive) | 32.6 µM (active) | > 30 µM (inactive) | > 30 µM (inactive)
FC(F)(F)c1ccc(/C=C/c2nc(COc3ccc(CCCCn4ccnn4)cc3)co2)cc1 [MUBRITINIB] | > 30 µM (inactive) | > 30 µM (inactive) | > 30 µM (inactive) | > 30 µM (inactive) | > 30 µM (inactive)
COc1ncc(-c2ccc3nccc(-c4ccnnc4)c3c2)cc1NS(=O)(=O)c1ccc(F)cc1F [OMIPALISIB] | > 30 µM (inactive) | > 30 µM (inactive) | > 30 µM (inactive) | > 30 µM (inactive) | > 30 µM (inactive)
CCOc1cc2ncc(C#N)c(Nc3ccc(F)c(Cl)c3)c2cc1NC(=O)/C=C/CN(C)C [PELITINIB] | > 30 µM (inactive) | > 30 µM (inactive) | 10.5 µM (active) | 0.189 µM (active) | > 30 µM (inactive)
CCCCCCCCCCCCCCCCCCOP(=O)([O-])OC1CC[N+](C)(C)CC1 [PERIFOSINE] | > 30 µM (inactive) | > 30 µM (inactive) | > 30 µM (inactive) | > 30 µM (inactive) | > 30 µM (inactive)
